Test results as given in patent US6252094A (The Scripps Research Institute, priority 1999, dated 2001).

Columns and labels:
[1] = background statement; cited from earlier work
tubulin [2] = test: Microtubule polymerization-depolymerization measurements (turbidity at 340 nm); assay type: biochemical; details: for suppression of calcium chloride promoted depolymerization: 10^-6 M drug, 1.0 mg/mL tubulin, 0.25 mM CaCl2, 37° C.
Experimental: Tubulin polymerization-depolymerization measurements are illustrate in FIG. 3. Negative controls are shown with triangles; positive taxol controls are shown with diamonds; and taxol-2'-MPT, i.e., compound 2 is shown with dots.
More particularly, measurement were performed in 96 well plates at 37° C. following the protocol of R. Merlock and W. Wrasidlo (Analytical Biochemistry 1993, in press). Calcium chloride addition is indicated by the arrow. In each case, 1.0 mM GTP was used to promote the initial polymerization of tubulin. Negative control employed tubulin (1.0 mg/mL) alone, CaCl2 (0,25 mM) added after 20 minutes. Positive taxol control employed tubulin (1.0 mg/mL) with taxol (10^-6 M) and CaCl2 (0.25 mM) added after 20 minutes. The experimental taxol-2'-MPTemployed tubulin (1.0 mg/mL) with taxol-2'-MPT (10^-6) and CaCl2 (0.25 mM) added after 20 minutes. Turbidity was measured as optical density at 340 nm using a microplate reader (Molecular Devices Thermomax).

human leukemia = test: Cytotoxicity (XTT, 72 hours), human leukemia
[3] = Octanol/water partition coefficient by HPLC
Experimental: (§1) The solubility and partition coefficient data for 2 and taxol were determined using an HPLC method.
(§2) Solubility was found by forming a solution in water with the aid of sonication for five minutes, centrifugation of the samples, and injection of the supernatant. The values reported were normalized using calibration curves constructed for both compounds by preparing known concentrations in the range 1×10^-6 to 1×10^-3 M in methylene chloride and subjecting to HPLC analysis under the same conditions. […] Partition coefficients were determined by dissolving the compound in the organic phase, shaking the resulting solution with water for ten minutes, and analyzing each phase by HPLC as above.

tubulin [4] = details: background; cited from earlier work
metastatic melanoma = test: Cytotoxicity (XTT, 72 hours), metastatic melanoma
Experimental: (§6) More particularly, cells were plated on 96 well plates with the following controls: no cells and toxic control (1×10^-3 M SDS). The drug was added to the first set of wells and diluted via standard dilution method from the stock. Plates were incubated at 37° C., 5% CO2 in sterile air in an humidified incubator for 72 hours. An aliquot of 50 L of a solution of 2,3-bis(methoxy-4-nitro-5-sulfophenyl)-5-[(phenylamino)carbonyl]-1H-tetrazolium hydroxide (XTT), 1 mg mL^-1, in phosphate buffered saline (PBS, 100 mM) was added to the wells. In the presence of viable cells, this colorless clear media is enzymatically altered to give a pink coloration. […] Percentage cytotoxicity was calculated using the formula: %C=1--(OD toxin)(OD growth control)^-1 (100).

cervical carcinoma = test: Cytotoxicity (XTT, 72 hours), cervical carcinoma
Experimental: as §6

albumin = details: sera; cited from earlier work
[5] = Solubility in water by HPLC (sonication, centrifugation, injection of supernatant); assay type: physicochemical
Experimental: as §1, §2

[6] = Self-assembly: optical clarity, OD at 340 nm, TEM; assay type: physicochemical; details: for morphology of self-assembled structures in buffered solutions: 1 mM in 100 mM PBS
Source text: Transmission electron microscopy (TEM) confirmed the presence of supramolecular structures in these solutions. […] It is likely that the long term stability of these solutions is due, at least in part, to stabilization provided by this structured environment.

immunoglobulins = test: Displacement of MPT group by immunoglobulins
Source text: (§3) However, the release of taxol from taxol-2'-MPT can also be catalyzed by serum protein and by proteins having nucleophilic groups. […] Dialysis of the protein:taxol intermediate indicates a dissociation period of hours or days. Displacement of the MPT group by serum proteins seems to be specific for such serum proteins. […] The precise nature of the bonding between the protein and taxol has not been characterized. Scheme 2 illustrates alternative pathways for MPT release.

non-serum proteins = test: Displacement of MPT group by non-serum proteins
Source text: as §3

[7] = Stability/kinetics of taxol release from taxol-2'-MPT in plasma; assay type: in vitro ADME, human
Experimental: (§4) Due to a difference in retention time using our standard HPLC conditions (see FIG. 1) and differing ultraviolet absorption maxima (1280 /1254 =1.6 for 2 and 0.3 for 1), the stability of 2 was easily assayed by HPLC (FIG. 1). […] In phosphate buffered saline (PBS) or ammonium acetate--phosphate buffer systems of pH 6.0 to 7.3, 2 is stable at 25° C. for over 21 days. Taxol-2'-MPT (2) is, however, unstable in 5% HCl (pH 1.1) and brine.
(§5) Under these conditions 20% of total is recovered. More particularly, Taxol-2'-MPT (2) was dissolved in the aqueous system with the aid of sonication for five minutes. Aliquots were then removed at the times shown and partitioned into methylene chloride to quench the reaction. Samples were then analyzed using a Waters Maxima HPLC instrument equipped with an autoinjector (3.9×300 mm C18 column equipped with a precolumn. The flow rate was 1.5 mL/minute. The eluent gradient A-B extended over 30 minutes. "A" was 80% 80 mM ammonium acetate, pH 6.0. "B" was 100% methanol. An ultraviolet diode array detector was employed. The ratio of compound 2 (Rf 16.2 min.) to taxol (compound 1, Rf 16.8 min.) remaining was determined from the relative areas of the peaks after normalization with previously determined calibration curves.

[8] = tested on: A549 non-small cell lung adenocarcinoma; test: Efficacy in lung tumor xenograft nude mouse model
Experimental: The tumor model was generated from an ATCC A549 non-small cell lung adenocarcinoma cell line that was maintained under the standard cell proliferation conditions (37° C., 5% carbon dioxide in sterile air). Hemocytometer counted cells suspended in Hanks medium (Gibco, Grand Island N.Y.) were implanted S.C.

serum albumen = test: Displacement of MPT group by serum albumin
Source text: as §3

serum protein = test: Displacement of MPT group by serum protein
Source text: as §3

[9] = Kinetics of taxol release from taxol-2'-MPT in aqueous solutions at 25° C.; assay type: physicochemical; details: sterile water, pH 6.2 PBS or 5% dextrose, over 11 minutes
Experimental: as §5

[10] = Stability of taxol-2'-MPT by HPLC (solid state, aqueous media); assay type: physicochemical
Experimental: as §4

[11] = water, 5% dextrose, 1.5% saline

CC(=O)O[C@H]1C(=O)[C@@]2(C)[C@H]([C@H](OC(=O)c3ccccc3)[C@]3(O)C[C@H](OC(=O)[C@H](O)[C@@H](NC(=O)c4ccccc4)c4ccccc4)C(C)=C1C3(C)C)[C@]1(OC(C)=O)CO[C@@H]1C[C@@H]2O [taxol, reference compound]
water solubility [1]: less than 1.5×10^-6 molar
suppression of calcium chloride promoted depolymerization (tubulin [2]): suppressed by taxol
microtubule stabilization by taxol recovered from human plasma treated with 2 (tubulin [2]; taxol recovered from plasma): exhibited the expected microtubule stabilization
cytotoxicity level, human leukemia (human leukemia): Extremely high
Partition Coefficient [octanol]/[water] [3]: > 10000
effect of taxol binding on tubulin (tubulin [4]): prevents its polymerization and the formation of microtubules
cytotoxicity level, metastatic melanoma (metastatic melanoma): Extremely high
cytotoxicity level, cervical carcinoma (cervical carcinoma): Extremely high
taxol binding to albumin (albumin): ca. 85%

CC(=O)O[C@H]1C(=O)[C@@]2(C)[C@H]([C@H](OC(=O)c3ccccc3)[C@]3(O)C[C@H](OC(=O)[C@H](Oc4cccc[n+]4C)[C@@H](NC(=O)c4ccccc4)c4ccccc4)C(C)=C1C3(C)C)[C@]1(OC(C)=O)CO[C@@H]1C[C@@H]2O [taxol-2'-MPT]
degradation during solubility and partition studies [5]: No degradation
solubility compared with clinically relevant dosages (3 to 30 mM) ([5]; range of aqueous systems): higher than the clinically relevant dosages
water solubility compared with parent taxol ([5]; relative to taxol): significantly more soluble in water than the parent taxol
solubility ([5]; water, HPLC, table value): 1700 µM
morphology of self-assembled structures in buffered solutions ([6]; TEM): self-assembled helical fibrous nanostructures
morphology of self-assembled structures in buffered solutions ([6]; TEM, listed as 2): Uniform aggregates of fibrillar structure
morphology of self-assembled structures in unbuffered solutions ([6]; 1 mM in H2O, TEM): self-assembled spherical nanostructures
diameter of fibrillar aggregates ([6]; TEM): ca. 80 Å
helical twist of aggregates ([6]; TEM): about 7
length of fibrillar aggregates ([6]; TEM): up to 800 Å
concentration above which haze is exhibited ([6]; buffered solutions): greater than 1×10^-3 M
critical concentration (exponential increase in OD at 340 nm) ([6]; buffered solutions, 340 nm): 400 µM
diameter of spherical structures ([6]; freshly sonicated solutions, TEM): about 50 Å
optical appearance of water solutions ([6]; water, all concentrations examined): optically clear
suppression of calcium chloride promoted depolymerization (tubulin [2]): not by taxol-2'-MPT
microtubule polymerization-depolymerization (tubulin [2]; GTP-saline controls and taxol as comparators): very similar to GTP-saline controls and drastically different from taxol
effect on tubulin-microtubule equilibria (tubulin [2]; buffered aqueous assay): does not affect the tubulin-microtubule equilibria
binding to tubulin (tubulin [2]; inferred from the polymerization assay): does not appear to bind to tubulin in the manner of taxol
cytotoxicity level, human leukemia (human leukemia): Extremely high
effectiveness in displacing MPT group, immunoglobulins (immunoglobulins): particularly effective
logP [3]: 1.7
MPT-displacing activity of non-serum proteins (non-serum proteins): seemed to lack this activity
cytotoxicity level, metastatic melanoma (metastatic melanoma): Extremely high
degradation in human plasma ([7]; human plasma, 37° C.): breaks down rapidly
recovery ([7]; human, plasma, methylene chloride extraction, read-out: total recovered from plasma): 20%
total recovered from plasma ([7]; plasma, methylene chloride extraction): 20%
time to complete conversion of 2 into taxol in plasma ([7]; plasma, methylene chloride extraction, 25° C. per FIG. 1): ≤ 10 min
discharge of taxol in sera ([7]; sera): rapidly discharges taxol in sera
control of tumor growth ([8]; I.P. day 1, 3, 7, taxol 18.0 mg/kg, taxol-2'-MPT 23.9 mg/kg, preliminary data): at least comparable to that of taxol
conversion to taxol in vivo ([8]; inferred from the xenograft results): converted rapidly to taxol in vivo
cytotoxicity level, cervical carcinoma (cervical carcinoma): Extremely high
effectiveness in displacing MPT group, serum albumin (serum albumen): particularly effective
displacement of MPT group on contact with serum protein (serum protein): observed to displace its MPT group and form a protein:taxol intermediate
taxol release in aqueous media [9]: no taxol release is observed
stability in 5% HCl and brine ([10]; 5% HCl (pH 1.1) and brine): unstable
degradation products detected ([10]; HPLC): taxol and the pyridinone that results from hydrolysis of pyridinium salts
stability period in buffer ([10]; PBS or ammonium acetate-phosphate buffer, pH 6.0 to 7.3, 25° C.): over 21 days
stability in aqueous media (discussion) ([10]; aqueous media, physiological pH and ion strength): essentially completely stable
stability in most aqueous media (discussion) ([10]; most aqueous media): remarkably stable
onset of slow degradation [10, 11]: > 4 days
stability in water, 5% dextrose, and 1.5% saline [10, 11]: stable for several days
